Experimental data reported in patent publication US10330673B2, “Fluorescent chemical sensor for biological amines” (The Curators of the University of Missouri, priority 2013, dated 2019).

Key:
[1] = Fluorescence titration of sensor with glutamate; assay type: binding; conditions: for Ka: pH 5.0, 37° C.
Protocol: Fluorescence spectra were recorded on a Shimadzu RF-5301 PC spectrofluorometer at 37° C. A 1 mg/mL stock solution of I-2 in DMSO was prepared. A stock solution of I-2 in buffer (1×10^−5 M, 25 mM HEPES, 50 mM Na2S2O3, pH=5.0) was prepared. Norepinephrine, dopamine, epinephrine, and glutamate stock solutions were prepared by separately dissolving the analytes at the concentration to be used in the titration with the buffered stock solution of I-2 (thus avoiding dilution of I-2 during the experiment). I-2 was titrated with aliquots of analyte solution. The sensor was excited at 488 nm with slit widths of 5 nm.
Fluorescence spectra were recorded on a Shimadzu RF-5301 PC spectrofluorometer at 37° C. A separate 1 mg/mL stock solution of each coumarin-3-aldehyde derivative in DMSO was prepared. An aqueous stock solution of each derivative (10 μM) in buffer (25 mM HEPES, 50 mM Na2S2O3, pH=5.0) was prepared. Norepinephrine, dopamine, glutamate, and epinephrine stock solutions were prepared by separately dissolving the solid analytes at the concentration to be used in the titration with the buffered stock solutions described above and thus, avoiding dilution of the sensor during the experiment. The benzene-based NS521 derivatives were excited at 488 nm. The thiophene-based derivatives were excited at 515 nm.

[2] = Fluorescence titration of sensor with lysine; assay type: binding; conditions: amine guest lysine
[3] = Fluorescence quantum yield, unbound fluorophore; assay type: physicochemical; conditions: no amine guest (sensor alone)
Protocol: (§1) Steady-state fluorescence spectroscopic studies were performed using a Horiba Scientific Fluorolog-3 Model FL3C-111 spectrofluorometer and data was collected and analyzed using HJY FluorEssence™ 3.5.1.20 software package. UV-visible spectra were obtained on a Varian Cary 1E UV-visible spectrophotometer. A stock solution of each benzene- or thiophene-based coumarin-3-aldehyde derivative (1 μM) in buffer (25 mM HEPES, 50 mM Na2S2O3, pH=5.0) was prepared. Each solution contained 1% (v/v) DMSO as a cosolvent except as noted. The slit width was 2 nm for both excitation and emission. The bound benzene- and thiophene-coumarin-3-aldehyde derivatives contained 500 mM glutamate (pH=5.0).
(§2) To determine the relative quantum yield of fluorescence (Φfl) for the benzene-based derivatives, a 1.0 μM solution of fluorescein (absolute Φfl=0.85) in 0.1 N NaOH (pH 13) was used as a fluorescence standard. The unbound derivatives were excited at 473 nm and the bound derivatives were excited at 488 nm. To determine the relative quantum yield of fluorescence (Φfl) for the thiophene-based derivatives, a 1.0 μM solution of rhodamine B (absolute Φfl=0.31) in water (pH 7) was used as a fluorescence standard. The unbound derivatives were excited at 473 nm and the bound derivatives were excited at 515 nm. Quantum yields were obtained in triplicate and calculated as per the following equation: […]

[4] = Fluorescence quantum yield of sensor bound to glutamate; assay type: physicochemical
Protocol: as §1, §2

[5] = test system: norepinephrine-enriched chromaffin cells; assay: Live-cell confocal imaging with Compound I-2, norepinephrine-enriched cells; assay type: cell-based, bovine; conditions: 0.1 μM
Protocol: (§3) Chromaffin cells were separated into norepinephrine-enriched and epinephrine-enriched fractions by centrifugation on a Percoll gradient. Both populations were independently incubated with a 0.1 μM solution of Compound I-2 at 37° C. for 30 minutes and then washed to remove excess sensor and plated.
(§4) Chromaffin cells were isolated from bovine adrenal glands as previously described. Following centrifugation at 18° C. at 13,000 rpm for 45 minutes in the Percoll gradient, chromaffin cells separate into fractions enriched with either epinephrine-enriched cells (denser band) and norepinephrine-enriched cells (lighter band). Moro, M. A.; Lépez, M. G.; Gandía, L.; Michelena, P.; Garcia, G. Separation and culture of living adrenaline- and noradrenaline-containing cells from bovine adrenal medullae. Anal. Biochem. 1990, 185, 243-248. Over 90% of the catecholamine content found in the cells in the denser fraction are epinephrine, whereas approximately 67% of the catecholamine content in the lighter fraction are norepinephrine. Liu, X.; Barizuddin, S.; Shin, W.; Mathai, C. J.; Gangopadhyay, S.; Gillis, K. D. Microwell device for targeting single cells to electrochemical microelectrodes for high-throughput amperometric detection of quantal exocytosis. Anal. Chem. 2011, 83, 2445-2451. The two cell fractions were collected from the Percoll gradient with careful pipetting and separately cultured. […]

[6] = test system: epinephrine-enriched chromaffin cells; assay: Live-cell confocal imaging with Compound I-2, epinephrine-enriched cells; assay type: cell-based, bovine; conditions: 0.1 μM
Protocol: as §3, §4

[7] = Fluorescence response mode toward catecholamines; assay type: binding; conditions: catecholamines norepinephrine and dopamine
[8] = Table 2, analyte glutamate, benzene-based compounds I, excited at 488 nm
[9] = 37° C., 30 minutes, 488 nm excitation (bound sensor)
[10] = excited at 440 nm (unbound sensor)

- Quantum Yield (Φ) [3]: 0.0029
- Quantum Yield (Φ) ([4]; bound to glutamate): 0.0095
- difference in quantum yields, bound to glutamate vs bound to norepinephrine ([4]; in words): three-fold
Structure (SMILES): CCN(CC)c1ccc2c(-c3ccc(OC)cc3)c(C=O)c(=O)oc2c1 [Compound I-2, 7-diethylamino-3-formyl-4-(4′-methoxyphenyl)coumarin]
- F.E. [1, 8]: 7.82
- Ka [1, 8]: 9.63 M⁻¹
- Ka ([1]; amine guest glutamate, fluorescence spectroscopy, λex = 488 nm, λem = 521 nm): 10 M⁻¹
- Isat/Io (λex = 488 nm) ([1]; amine guest glutamate, intensity at saturation from fit to binding isotherm): 7.8
- Ka ([2]; fluorescence spectroscopy, λex = 488 nm, λem = 521 nm): 11 M⁻¹
- Isat/Io (λex = 488 nm) ([2]; intensity at saturation from fit to binding isotherm): 15.1
- cell fluorescence, confocal microscopy [5, 9]: strong, punctate fluorescence
- cell fluorescence, confocal microscopy [5, 10]: No significant fluorescence
- cell fluorescence, confocal microscopy [6, 9]: marginal fluorescence
- cell fluorescence, confocal microscopy [6, 10]: No significant fluorescence
- mode of fluorescence response [7]: turn-on fluorescent sensor
